Measurements from patent US9402875B2, “Amidated dopamine neuron stimulating peptide restoration of mitochondrial activity” (University of Kentucky Research Foundation, priority 2006, dated 2016).
“Also recorded” adds a separate entry of the source. Ends that are not written are not given here.

How the values were obtained:
Type in all cases: cell-based
[1] = tested on: E14 SD rat embryo primary dopaminergic neurons from the ventral mesencephalon
Description: DNSP-11 treatment of Mesencephalic Cells: Timed pregnant SD rats (Harlan) were used to obtain the ventral mesencephalon from E14 fetuses. The dissected tissue was collected in cold Neurobasal™ medium and rinsed twice with cold Dulbecco's PBS. The cells were chemically (TrypLE®) and mechanically dissociated to yield a single cell suspension. The solution was centrifuged at 169 g for 6 minutes and the pellet was resuspended in Dulbecco's Modified Eagle Medium (DMEM). Cells were plated in a 25 μL micro-island at a density of 4000 cells/μL on poly-D-lysine coated 24-well plates (Sigma). Following adherence, cells were supplemented with warm NEUROBASAL™ media containing 2 mM glutamine, 1×N2, and 100 units of penicillin/streptomycin. Neurotrophic compounds were added at each media addition, including initial plating and DIV 2. A dose response of the peptides (0.03 ng to 10 ng/mL) was added to a 24-well plate following media supplementation.
The neurotrophic effects of DNSP-11 were studied by comparing its effects to the well-known effects of GDNF on the maintenance of primary mesencephalic cell cultures from E14 SD rat embryos. E14 SD rat embryo primary dopaminergic neurons from the ventral mesencephalon were grown for 5 days in vitro and neurotrophic molecules were added at each media change, including initial plating and day 2. […] These effects were similar to those observed for GDNF in these cells, including an increase in the size of TH+ neurons, which was not observed for DNSP-11 (Table 4).
In Table 1, cell survival and morphological parameters were quantified for control (citrate buffer) and experimental (0.1 ng/ml GDNF or 0.1 ng/ml DNSP-11) conditions. For morphology, five fields per well (minimum of 15 cells/field; 3-4 independent experiments) were photographed at 20× magnification and quantified using a Bioquant Image Analysis System. […] Soma size was not increased by the addition of DNSP-11. A one-way ANOVA was used to test for significance among groups, followed by a Newman-Keuls post hoc analysis. Significance between control and experimental conditions was determined at *p<0.05 and **p<0.01.

[2] = tested on: MN9D cells; assay: TUNEL staining, mitochondrial toxins
Description: (§1) MN9D cells and B65 cells were cultured in Dulbecco's Modified Eagle's Medium (DMEM; 11995 (containing pyridoxol HCl); Sigma, St. Louis, Mo.) supplemented with 10% fetal bovine serum (HyClone, Logan, Utah), 50 U/mL penicillin and streptomycin. For each assay the cells were treated with mitochondrial-specific environmental toxins, i.e., MPP+, rotenone, and/or TaClo, and with or without DNSP-11. After incubation with the toxins, the cells were plated on 24-well poly-D-lysine plates (50,000 cells/well) for TUNEL assay (as described below) or 100,000 cell/well for caspase-3 assay in DMEM medium with 1% (v/v) penicillin-streptomycin only (as described below).
Terminal deoxynucleotidyl transferase mediated X-dUTP nicked end DNA labeling of cells (TUNEL staining) was used to assess cells undergoing apoptosis. […] The biotinylated nucleotides are detected by using streptavidin-horseradish peroxidase conjugate followed by the substrate, diaminobenzidine (DAB). […] Cell were counted with 20× magnification (4 random fields/well), 4 wells per group. Ratio between apoptotic cells and total cells was calculated. […]

[3] = tested on: B65 cells; assay: JC-1 mitochondrial membrane potential assay
Description: as §1
(§2) MN9D and B65 cells were treated with either 50 nM, 100 nM, 250 nM, 500 nM, 2.5 μM or 5 μM rotenone, 50 nM, 100 nM, 250 nM 1-methyl-4-phenylpyridinium (MPP+), or 10 μM , 25 μM, 50 μM, 100 μM, 150 μM or […]-1,2,3,4-tetrahydro-β-carboline (TaClo), for 1 to 12 hours and then incubated at 37° C. in 5% CO2 following pretreatment (1 to 30 minutes) with or without 100 nM or 10 nM DNSP-11. After treatment with rotenone, MPP+ or TaClo and incubation with DNSP-11, the cells were incubated for 30 minutes at 37° C. in a 5% CO2 incubator in the presence of 10 μM of the green fluorescent JC-1 (5,5′, 6,6′-tetrachloro-1,1′,3,3′-tetraethylbenzimidazolyl-cabo-cyanine iodine, T-3168 (Invitrogen)) and then washed in Locke's solution. Optical measurements were acquired with excitation at 485 nm and emission at 527 nm, and 590 nm. The levels of fluorescence at each emission wavelengths were quantified and ratio of measurements was assessed. The pertinent data are given as mean±S.E.M. for mean optical measurements. The values are expressed as percent of the mean control values ±S.E.M. and analyzed using ANOVA.

[4] = tested on: MN9D cells; assay: JC-1 mitochondrial membrane potential assay
Description: as §1, §2

[5] = MPP+, rotenone or TaClo 1 to 12 hours, pretreatment with 10 nM or 100 nM DNSP-11

In the case of “PPEAPAEDRSL-NH2 [DNSP-11, PPEAPAEDRSL-amide]”, the Cell survival ([1]; 0.1 ng/ml, 5 days in vitro, control 100) was “*161 ± 17”, the “Average branches per neuron” value ([1]; 0.1 ng/ml, controls 3.8 ± 0.2 (GDNF), 3.1 ± 0.2 (DNSP-11)) was “**4.4 ± 0.3” and the “Soma size (um^2)” value ([1]; 0.1 ng/ml, controls 171 ± 4 (GDNF), 168 ± 3 (DNSP-11)) was 165 ± 5 um^2. For the same substance, the “Combined neurite length (um)” value ([1]; 0.1 ng/ml, controls 242 ± 12 (GDNF), 222 ± 11 (DNSP-11)) was “**306 ± 23 um”, the “TH+ neuron counts” value ([1]; 0.03, 0.1, 1.0 and 10 ng/ml) was “significantly increase” and the “TUNEL staining, protection from toxins” value [2, 5] was “significant protection”. For the same substance, the “TUNEL staining, DNSP-11 alone” value ([2]; no toxin) was “no significant effect”, the “mitochondrial potential, protection from toxins” value [3, 5] was “protects the cells; also recorded: significant protection” and the “mitochondrial potential, DNSP-11 alone” value ([3]; no toxin) was “no significant effect”. The “mitochondrial potential, protection from toxins” value [4, 5] was “protects the cells; also recorded: significant protection” and the “mitochondrial potential, DNSP-11 alone” value ([4]; no toxin) was “no significant effect”.
